#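 Interpolation was linear, between the two tested concentrations surrounding the appropriate level; five concentrations were tested over 48 hours in 96-well plates. At the GI50, growth is halved. TGI marks complete inhibition of growth.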
# What was measured:
# Assay in all cases: inhibition of tumour cell growth, NCI panel, 48 h
# SK-MEL-28 melanoma = system: SK-MEL-28 melanoma
# MDA-MB-231 breast = system: MDA-MB-231 breast
# NCI-H460 lung = system: NCI-H460 lung
# HT29 colon = system: HT29 colon
# 786-0 renal = system: 786-0 renal
# IGROV1 ovarian = system: IGROV1 ovarian
# SK-OV-3 ovarian = system: SK-OV-3 ovarian
# BT-549 breast = system: BT-549 breast
# OVCAR-5 ovarian = system: OVCAR-5 ovarian
# EKVX NSCLC = system: EKVX NSCLC
# RPMI-8226 leukemia = system: RPMI-8226 leukemia
# NCI-H23 lung = system: NCI-H23 lung
# NCI/ADR-RES ovarian = system: NCI/ADR-RES ovarian
# OVCAR-3 ovarian = system: OVCAR-3 ovarian
# SK-MEL-5 melanoma = system: SK-MEL-5 melanoma
# SF-268 CNS = system: SF-268 CNS
# TK-10 renal = system: TK-10 renal
# OVCAR-8 ovarian = system: OVCAR-8 ovarian
# KM12 colon = system: KM12 colon
# UO-31 renal = system: UO-31 renal
# UACC-257 melanoma = system: UACC-257 melanoma
# UACC-62 melanoma = system: UACC-62 melanoma
# COLO 205 colon = system: COLO 205 colon
# LOX IMVI melanoma = system: LOX IMVI melanoma
# T-47D breast = system: T-47D breast
# OVCAR-4 ovarian = system: OVCAR-4 ovarian
# U251 CNS = system: U251 CNS
# NCI-H226 lung = system: NCI-H226 lung
# CAKI-1 renal = system: CAKI-1 renal
# SF-295 CNS = system: SF-295 CNS
# DU-145 prostate = system: DU-145 prostate
# MDA-MB-435 = system: MDA-MB-435
# ACHN renal = system: ACHN renal
# A549 NSCLC = system: A549 NSCLC
# MALME-3M melanoma = system: MALME-3M melanoma
# CCRF-CEM leukemia = system: CCRF-CEM leukemia
# HS 578T breast = system: HS 578T breast
# MCF7 breast = system: MCF7 breast
# HCT-15 colon = system: HCT-15 colon
# HL-60(TB) leukemia = system: HL-60(TB) leukemia
# SW-620 colon = system: SW-620 colon
# SNB-19 CNS = system: SNB-19 CNS
# HCC-2998 colon = system: HCC-2998 colon
# M14 melanoma = system: M14 melanoma
# SF-539 CNS = system: SF-539 CNS
# PC-3 prostate = system: PC-3 prostate
# NCI-H522 lung = system: NCI-H522 lung
# HOP-92 NSCLC = system: HOP-92 NSCLC
# SK-MEL-2 melanoma = system: SK-MEL-2 melanoma
# HOP-62 NSCLC = system: HOP-62 NSCLC
# A498 renal = system: A498 renal
# HCT-116 colon = system: HCT-116 colon
# SN12C renal = system: SN12C renal
# SNB-75 CNS = system: SNB-75 CNS
# RXF 393 renal = system: RXF 393 renal
compound,measurement,setting,value
Cc1cccc2c(C(=O)O[C@H](C(N)=O)[C@]3(C)CO3)cccc12,GI50,SK-MEL-28 melanoma,1910 nM
same,TGI,SK-MEL-28 melanoma,5490 nM
same,GI50,MDA-MB-231 breast,1990 nM
same,TGI,MDA-MB-231 breast,6570 nM
same,GI50,NCI-H460 lung,4310 nM
same,TGI,NCI-H460 lung,> 41500 nM
same,GI50,HT29 colon,693 nM
same,GI50,786-0 renal,1400 nM
same,TGI,786-0 renal,8210 nM
same,GI50,IGROV1 ovarian,817 nM
same,TGI,IGROV1 ovarian,> 22400 nM
same,GI50,SK-OV-3 ovarian,7480 nM
same,TGI,SK-OV-3 ovarian,24400 nM
same,GI50,BT-549 breast,1950 nM
same,TGI,BT-549 breast,6070 nM
same,GI50,OVCAR-5 ovarian,3120 nM
same,TGI,OVCAR-5 ovarian,> 34400 nM
same,GI50,EKVX NSCLC,3930 nM
same,TGI,EKVX NSCLC,13500 nM
same,GI50,RPMI-8226 leukemia,1710 nM
same,GI50,NCI-H23 lung,1130 nM
same,TGI,NCI-H23 lung,3110 nM
same,GI50,NCI/ADR-RES ovarian,904 nM
same,TGI,NCI/ADR-RES ovarian,6340 nM
same,GI50,OVCAR-3 ovarian,2070 nM
same,TGI,OVCAR-3 ovarian,13300 nM
same,GI50,SK-MEL-5 melanoma,1230 nM
same,TGI,SK-MEL-5 melanoma,3040 nM
same,GI50,SF-268 CNS,2300 nM
same,TGI,SF-268 CNS,> 100000 nM
same,GI50,TK-10 renal,6020 nM
same,TGI,TK-10 renal,33300 nM
same,GI50,OVCAR-8 ovarian,465 nM
same,TGI,OVCAR-8 ovarian,26800 nM
same,GI50,KM12 colon,6650 nM
same,TGI,KM12 colon,42900 nM
same,GI50,UO-31 renal,1490 nM
same,TGI,UO-31 renal,7150 nM
same,GI50,UACC-257 melanoma,4380 nM
same,TGI,UACC-257 melanoma,> 41800 nM
same,GI50,UACC-62 melanoma,481 nM
same,TGI,UACC-62 melanoma,1750 nM
same,GI50,COLO 205 colon,2370 nM
same,TGI,COLO 205 colon,13400 nM
same,GI50,LOX IMVI melanoma,92.6 nM
same,TGI,LOX IMVI melanoma,1780 nM
same,GI50,T-47D breast,2750 nM
same,TGI,T-47D breast,15900 nM
same,GI50,OVCAR-4 ovarian,3390 nM
same,TGI,OVCAR-4 ovarian,> 55900 nM
same,GI50,U251 CNS,690 nM
same,TGI,U251 CNS,8070 nM
same,GI50,NCI-H226 lung,556 nM
same,TGI,NCI-H226 lung,2210 nM
same,GI50,CAKI-1 renal,1330 nM
same,TGI,CAKI-1 renal,11600 nM
same,GI50,SF-295 CNS,2110 nM
same,TGI,SF-295 CNS,19200 nM
same,GI50,DU-145 prostate,1170 nM
same,TGI,DU-145 prostate,5890 nM
same,GI50,MDA-MB-435,4750 nM
same,TGI,MDA-MB-435,26800 nM
same,GI50,ACHN renal,302 nM
same,TGI,ACHN renal,2670 nM
same,GI50,A549 NSCLC,3660 nM
same,TGI,A549 NSCLC,> 100000 nM
same,GI50,MALME-3M melanoma,3970 nM
same,TGI,MALME-3M melanoma,10600 nM
same,GI50,CCRF-CEM leukemia,599 nM
same,GI50,HS 578T breast,3520 nM
same,TGI,HS 578T breast,> 26800 nM
same,GI50,MCF7 breast,342 nM
same,TGI,MCF7 breast,> 100000 nM
same,GI50,HCT-15 colon,1690 nM
same,TGI,HCT-15 colon,7700 nM
same,GI50,HL-60(TB) leukemia,> 100000 nM
same,TGI,HL-60(TB) leukemia,> 100000 nM
same,GI50,SW-620 colon,351 nM
same,TGI,SW-620 colon,> 79900 nM
same,GI50,SNB-19 CNS,5230 nM
same,TGI,SNB-19 CNS,> 61700 nM
same,GI50,HCC-2998 colon,1240 nM
same,TGI,HCC-2998 colon,3330 nM
same,GI50,M14 melanoma,938 nM
same,TGI,M14 melanoma,2880 nM
same,GI50,SF-539 CNS,496 nM
same,TGI,SF-539 CNS,1570 nM
same,GI50,PC-3 prostate,1830 nM
same,TGI,PC-3 prostate,> 22500 nM
same,GI50,NCI-H522 lung,1390 nM
same,TGI,NCI-H522 lung,7820 nM
same,GI50,HOP-92 NSCLC,2280 nM
same,TGI,HOP-92 NSCLC,11400 nM
same,GI50,SK-MEL-2 melanoma,1720 nM
same,TGI,SK-MEL-2 melanoma,8960 nM
same,GI50,HOP-62 NSCLC,1120 nM
same,TGI,HOP-62 NSCLC,4660 nM
same,GI50,A498 renal,13300 nM
same,TGI,A498 renal,41200 nM
same,GI50,HCT-116 colon,135 nM
same,TGI,HCT-116 colon,5510 nM
same,GI50,SN12C renal,271 nM
same,TGI,SN12C renal,2580 nM
same,GI50,SNB-75 CNS,2810 nM
same,TGI,SNB-75 CNS,13100 nM
same,GI50,RXF 393 renal,3760 nM
same,TGI,RXF 393 renal,> 100000 nM
CCCCCCCCc1cc[n+](CC(=O)c2ccc(Br)cc2)cc1,GI50,SK-MEL-28 melanoma,1640 nM
same,TGI,SK-MEL-28 melanoma,3040 nM
same,GI50,MDA-MB-231 breast,1450 nM
same,TGI,MDA-MB-231 breast,2850 nM
same,GI50,NCI-H460 lung,1650 nM
same,TGI,NCI-H460 lung,3070 nM
same,GI50,HT29 colon,580 nM
same,TGI,HT29 colon,1970 nM
same,GI50,786-0 renal,1870 nM
same,TGI,786-0 renal,3300 nM
same,GI50,IGROV1 ovarian,1090 nM
same,TGI,IGROV1 ovarian,2450 nM
same,GI50,SK-OV-3 ovarian,1530 nM
same,TGI,SK-OV-3 ovarian,2950 nM
same,GI50,BT-549 breast,2440 nM
same,TGI,BT-549 breast,5520 nM
same,GI50,OVCAR-5 ovarian,1460 nM
same,TGI,OVCAR-5 ovarian,2900 nM
same,GI50,EKVX NSCLC,1380 nM
same,TGI,EKVX NSCLC,2800 nM
same,GI50,RPMI-8226 leukemia,1770 nM
same,TGI,RPMI-8226 leukemia,3790 nM
same,GI50,NCI-H23 lung,1480 nM
same,TGI,NCI-H23 lung,2990 nM
same,GI50,NCI/ADR-RES ovarian,8770 nM
same,TGI,NCI/ADR-RES ovarian,21900 nM
same,GI50,OVCAR-3 ovarian,1440 nM
same,TGI,OVCAR-3 ovarian,2750 nM
same,GI50,SK-MEL-5 melanoma,1510 nM
same,TGI,SK-MEL-5 melanoma,2890 nM
same,GI50,SF-268 CNS,1580 nM
same,TGI,SF-268 CNS,2920 nM
same,GI50,TK-10 renal,1400 nM
same,TGI,TK-10 renal,2700 nM
same,GI50,OVCAR-8 ovarian,1680 nM
same,TGI,OVCAR-8 ovarian,3220 nM
same,GI50,KM12 colon,1490 nM
same,TGI,KM12 colon,2810 nM
same,GI50,UO-31 renal,1490 nM
same,TGI,UO-31 renal,3190 nM
same,GI50,UACC-257 melanoma,1640 nM
same,TGI,UACC-257 melanoma,3110 nM
same,GI50,UACC-62 melanoma,1440 nM
same,TGI,UACC-62 melanoma,2760 nM
same,GI50,COLO 205 colon,1090 nM
same,TGI,COLO 205 colon,2280 nM
same,GI50,LOX IMVI melanoma,1570 nM
same,TGI,LOX IMVI melanoma,2910 nM
same,GI50,T-47D breast,1640 nM
same,TGI,T-47D breast,3140 nM
same,GI50,OVCAR-4 ovarian,1110 nM
same,TGI,OVCAR-4 ovarian,2310 nM
same,GI50,U251 CNS,1470 nM
same,TGI,U251 CNS,2790 nM
same,GI50,NCI-H226 lung,1510 nM
same,TGI,NCI-H226 lung,3010 nM
same,GI50,CAKI-1 renal,1370 nM
same,TGI,CAKI-1 renal,2840 nM
same,GI50,SF-295 CNS,1440 nM
same,TGI,SF-295 CNS,2830 nM
same,GI50,DU-145 prostate,1510 nM
same,TGI,DU-145 prostate,2860 nM
same,GI50,MDA-MB-435,1540 nM
same,TGI,MDA-MB-435,2970 nM
same,GI50,ACHN renal,1640 nM
same,TGI,ACHN renal,2990 nM
same,GI50,A549 NSCLC,1770 nM
same,TGI,A549 NSCLC,3250 nM
same,GI50,MALME-3M melanoma,1690 nM
same,TGI,MALME-3M melanoma,3500 nM
same,GI50,HS 578T breast,1860 nM
same,TGI,HS 578T breast,3750 nM
same,GI50,MCF7 breast,1520 nM
same,TGI,MCF7 breast,2840 nM
same,GI50,HCT-15 colon,1640 nM
same,TGI,HCT-15 colon,3200 nM
same,GI50,SW-620 colon,1410 nM
same,TGI,SW-620 colon,2770 nM
same,GI50,SNB-19 CNS,1590 nM
same,TGI,SNB-19 CNS,3310 nM
same,GI50,HCC-2998 colon,1610 nM
same,TGI,HCC-2998 colon,2960 nM
same,GI50,M14 melanoma,1750 nM
same,TGI,M14 melanoma,3240 nM
same,GI50,SF-539 CNS,1610 nM
same,TGI,SF-539 CNS,2960 nM
same,GI50,PC-3 prostate,1510 nM
same,TGI,PC-3 prostate,3000 nM
same,GI50,NCI-H522 lung,1020 nM
same,TGI,NCI-H522 lung,2260 nM
same,GI50,HOP-92 NSCLC,1470 nM
same,TGI,HOP-92 NSCLC,4100 nM
same,GI50,SK-MEL-2 melanoma,1610 nM
same,TGI,SK-MEL-2 melanoma,3030 nM
same,GI50,A498 renal,4420 nM
same,TGI,A498 renal,18100 nM
same,GI50,HCT-116 colon,1190 nM
same,TGI,HCT-116 colon,2490 nM
same,GI50,SN12C renal,1550 nM
same,TGI,SN12C renal,2980 nM
same,GI50,SNB-75 CNS,1280 nM
same,TGI,SNB-75 CNS,2540 nM
same,GI50,RXF 393 renal,1690 nM
same,TGI,RXF 393 renal,3170 nM

# Reference: PubChem BioAssay (NCI)
